Test results taken from publication PMC5662840, “Effect of Gelsemium elegans and Mussaenda pubescens, the Components of a Detoxification Herbal Formula, on Disturbance of the Intestinal Absorptions of Indole Alkaloids in Caco-2 Cells” (Evidence-based Complementary and Alternative Medicine : eCAM, 2017).

What was measured:
P-gp = molecular target: T1, P-gp (Homo sapiens, UniProt P08183); test: Inhibition transport study: GM with verapamil (P-gp inhibitor) across Caco-2 cells monolayer; format: in vitro ADME; conditions: for Papp A→B at 4 h / Papp B→A at 4 h / efflux ratio at 4 h / Papp A→B / Papp B→A / efflux ratio: human, Caco-2; for Papp A→B at 4 h / Papp B→A at 4 h / Papp A→B / Papp B→A: GM + verapamil (50 μmol), mean ± SEM, n = 3; for Papp A→B at 4 h / Papp A→B: apical-to-basolateral; for Papp B→A at 4 h / Papp B→A: basolateral-to-apical; for efflux ratio at 4 h / efflux ratio: GM + verapamil, read-out: efflux ratio γ (Papp BL-AP / Papp AP-BL); for decrease of efflux ratio γ: GM + verapamil compared with GM
T1 construct: endogenous in cells; host or cells: Caco-2 cells (cell bank of Chinese Academy of Sciences)
T1 sequence (P08183 whole entry): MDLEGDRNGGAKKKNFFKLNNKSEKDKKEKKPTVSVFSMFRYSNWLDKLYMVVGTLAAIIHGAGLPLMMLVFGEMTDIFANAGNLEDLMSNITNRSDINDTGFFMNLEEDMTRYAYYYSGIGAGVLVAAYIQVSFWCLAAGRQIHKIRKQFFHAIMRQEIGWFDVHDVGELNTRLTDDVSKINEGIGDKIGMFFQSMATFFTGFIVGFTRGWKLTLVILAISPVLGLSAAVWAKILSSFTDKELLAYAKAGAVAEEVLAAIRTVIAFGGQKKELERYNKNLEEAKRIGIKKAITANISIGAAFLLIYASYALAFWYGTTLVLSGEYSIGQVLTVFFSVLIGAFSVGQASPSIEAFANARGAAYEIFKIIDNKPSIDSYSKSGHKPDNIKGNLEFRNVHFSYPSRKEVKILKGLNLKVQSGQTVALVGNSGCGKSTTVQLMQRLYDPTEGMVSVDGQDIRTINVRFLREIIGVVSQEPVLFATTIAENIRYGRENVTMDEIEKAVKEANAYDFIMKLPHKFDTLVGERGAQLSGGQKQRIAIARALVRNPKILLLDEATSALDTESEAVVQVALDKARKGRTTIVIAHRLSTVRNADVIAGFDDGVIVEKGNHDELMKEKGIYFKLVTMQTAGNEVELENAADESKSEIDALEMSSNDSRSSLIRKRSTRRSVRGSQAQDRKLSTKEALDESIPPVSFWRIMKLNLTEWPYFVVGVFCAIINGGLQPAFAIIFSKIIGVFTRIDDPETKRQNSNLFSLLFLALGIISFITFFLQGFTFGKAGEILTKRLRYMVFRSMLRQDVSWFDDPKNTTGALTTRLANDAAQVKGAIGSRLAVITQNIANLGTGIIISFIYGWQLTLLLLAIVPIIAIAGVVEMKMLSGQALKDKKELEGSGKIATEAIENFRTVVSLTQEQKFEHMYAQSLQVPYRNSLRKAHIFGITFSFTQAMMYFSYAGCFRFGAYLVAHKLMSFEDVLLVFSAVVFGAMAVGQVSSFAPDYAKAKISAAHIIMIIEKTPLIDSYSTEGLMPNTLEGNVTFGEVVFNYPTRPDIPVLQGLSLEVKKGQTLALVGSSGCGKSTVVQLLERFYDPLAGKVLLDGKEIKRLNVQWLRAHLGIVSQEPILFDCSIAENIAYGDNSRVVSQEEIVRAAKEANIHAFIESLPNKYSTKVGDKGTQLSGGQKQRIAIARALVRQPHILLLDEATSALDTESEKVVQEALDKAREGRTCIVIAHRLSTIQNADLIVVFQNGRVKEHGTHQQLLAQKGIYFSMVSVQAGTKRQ
Procedure: (§1) As efflux transporters (P-gp and MRP2) are expressed on the apical side of Caco-2 cells, the absorption or efflux transport of indole alkaloids across this model was investigated in the presence of efflux transporters inhibitors. A selective P-gp inhibitor, verapamil (50 μmol), was added to GM. 10 μmol ciclosporin (a P-gp and MRP2 inhibitor) was also added to GM. The control group was set as well. After the preincubation, the different mixes were performed in Caco-2 cells monolayer. Transport studies were undertaken as mentioned above in the absorptive direction (AP-BL) and the efflux direction (BL-AP), separately. The samples were taken at 0, 1, 2, 3, and 4 h for LC-MS/MS analysis. The absorption and efflux transport apparent permeability (Papp) of indole alkaloids were determined.
(§2) All experiments were run in triplicate. […] The apparent permeability coefficients (Papp) for both the absorptive direction (AP→BL) and the efflux direction (BL→AP) studies were calculated according to the following:(3) Papp=dQ/dt/A×C0, where dQ/dt (μg·min^−1) is the drug permeation rate, A (cm^2) is the filter surface area, and C0 (μg·mL^−1) is the initial concentration in the donor chamber at t = 0 min.
(§3) The efflux ratio (γ) was calculated with the following equation:(4) γ=PappBL-AP/PappAP-BL.
(§4) The γ values are used to assess the effect of efflux transporters on the test compounds in the presence and absence of efflux transporters inhibitors.

Caco-2 cells monolayer = test: Bidirectional transport of indole alkaloids from GE and GM extracts across Caco-2 cells monolayer; format: in vitro ADME, Human; conditions: for efflux ratio γ (Papp BL-AP / Papp AP-BL): GM without inhibitor; for decrement of absorbance percentage: GM (GE combined with MP) versus GE sample; for efflux Papp relative to absorptive Papp: GM sample
Procedure: (§5) Human colon adenocarcinoma cell lines (Caco-2) were obtained from the cell bank of Chinese Academy of Sciences (Beijing, China). Cells were routinely grown in DMEM supplemented with 10% (v/v) fetal bovine serum, 1% (v/v) glutamine, 1% (v/v) nonessential amino acid solution, and 100 U/mL penicillin-streptomycin solution under a humidified atmosphere of 5% CO2 at 37°C. The medium was replaced every 2 days after incubation. After reaching 80% confluence, cells were passaged at a split ratio of 1 : 5, using 0.05% trypsin-EDTA. For the transport experiments, the cells of passages were seeded at a density of 1.0 × 10^6 cells/cm^2 on permeable polycarbonate inserts in 6-well tissue culture plates (Transwell Polycarbonate Membrance Insert 3414, Corning, USA), which has a surface area of 4.2 cm^2. Culture medium was changed every two days for 14 days and daily thereafter for the next 7 days. In our culture condition, cells monolayer, after seeding approximately between 19 and 21 days, usually was available for transport experiments.
(§6) The extracts, including GE and GM, were freshly prepared to the desired final concentration in DMSO. The final concentrations of DMSO in the incubation system were controlled within 0.1% (v/v) in all subsequent experiments. All transport experiments were conducted at 37°C unless specified otherwise. Transport of indole alkaloids across the Caco-2 cells monolayer was studied using monolayer of 19–21 days after seeding. Before the experiment, the monolayer was washed twice and preincubated with the blank HBSS for 1 h. Thereafter the HBSS solution on both sides of the cells monolayer was aspirated.
(§7) Transport studies were conducted in the absorptive direction (apical- (AP-) basolateral (BL)) and the efflux direction (BL-AP), separately. For determination of AP to BL transport, 2.5 mL of sample solutions was added to the AP side, respectively, and 2.5 mL of blank HBSS was added to the BL side. For determination of BL to AP transport, 2.5 mL of sample solutions was added to the BL side, respectively, and 2.5 mL of blank HBSS was added to the AP side. The cells monolayer was then put into a shaker at 50 rpm during the transport process. 400 μL of samples was taken for LC-MS/MS analysis at 0, 1, 2, 3, and 4 h after incubation, followed by an immediate replacement of 400 μL of the same solutions. At the end of the transport experiment, integrity of the monolayer was monitored by TEER value.
(§8) 400 μL of samples obtained from the Caco-2 cells transport assays was dried under nitrogen, and the residues were dissolved in 800 μL of 50% methanol. Followed by centrifugation at 12,000 rpm for 15 min, the supernatants were directly analyzed with UPLC-ESI-MS/MS. Chromatography-mass spectrum conditions were set as described above. The method researches of LC-MS/MS were similar to those described previously. Regression equations of gelsemine, humantenidine, koumine, gelsenicine, gelsevirine, and humantenine were Y = 23675X − 2864 (r = 0.9995), Y = 66331X + 13558 (r = 0.9995), Y = 6268X − 1503 (r = 0.9996), Y = 91160X − 10147 (r = 0.9998), Y = 32116X − 3951 (r = 0.9990), and Y = 36977X + 13830 (r = 0.9994), respectively.
as §2, §3

[1] = as above; format: in vitro ADME, Human; conditions: human; for efflux ratio at 4 h / efflux ratio: Caco-2, GM without inhibitor, read-out: efflux ratio γ (Papp BL-AP / Papp AP-BL); for Papp A→B at 4 h / Papp B→A at 4 h / Papp A→B / Papp B→A: Caco-2, GM (control group), mean ± SEM, n = 3; for Papp A→B at 4 h / Papp A→B: apical-to-basolateral; for Papp B→A at 4 h / Papp B→A: basolateral-to-apical
Procedure: as §5, §6, §7, §8, §2, §3

P-gp and MRP2 = test: Inhibition transport study: GM with ciclosporin (P-gp and MRP2 inhibitor) across Caco-2 cells monolayer; format: in vitro ADME, Human; conditions: for Papp A→B at 4 h / Papp B→A at 4 h / efflux ratio at 4 h / Papp A→B / Papp B→A / efflux ratio: human, Caco-2; for Papp A→B at 4 h / Papp B→A at 4 h / Papp A→B / Papp B→A: GM + ciclosporin (10 μmol), mean ± SEM, n = 3; for Papp A→B at 4 h / Papp A→B: apical-to-basolateral; for Papp B→A at 4 h / Papp B→A: basolateral-to-apical; for efflux ratio at 4 h / efflux ratio: GM + ciclosporin, read-out: efflux ratio γ (Papp BL-AP / Papp AP-BL); for decrease of efflux ratio γ: GM + ciclosporin compared with GM
Procedure: as §1, §2, §3, §4

SMILES | Papp A→B at 4 h (P-gp) [×10⁻⁶ cm/s] | Papp B→A at 4 h (P-gp) [×10⁻⁶ cm/s] | efflux ratio at 4 h (P-gp) | efflux ratio γ (Papp BL-AP / Papp AP-BL) (Caco-2 cells monolayer) | efflux ratio at 4 h [1] | Papp A→B at 4 h [1] [×10⁻⁶ cm/s] | Papp B→A at 4 h [1] [×10⁻⁶ cm/s] | decrease of efflux ratio γ (P-gp) [%] | decrement of absorbance percentage (Caco-2 cells monolayer; apical to basolateral) | efflux Papp relative to absorptive Papp (Caco-2 cells monolayer) | decrease of efflux ratio γ (P-gp and MRP2) [%] | Papp A→B (P-gp) [×10⁻⁶ cm/s] | Papp B→A (P-gp) [×10⁻⁶ cm/s] | efflux ratio (P-gp) | efflux ratio [1] | Papp A→B [1] [×10⁻⁶ cm/s] | Papp B→A [1] [×10⁻⁶ cm/s] | Papp A→B (P-gp and MRP2) [×10⁻⁶ cm/s] | Papp B→A (P-gp and MRP2) [×10⁻⁶ cm/s] | efflux ratio (P-gp and MRP2) | also measured
C=C[C@]12CN(C)[C@@H]3[C@H]4CO[C@H](C[C@H]41)[C@]1(C(=O)Nc4ccccc41)[C@@H]32 [Gelsemine, gelsemine] | 30.3 ± 7.45 | 33.2 ± 8 | 1.09 | 1.07 | ~1 | 6.83 ± 2.64 | 7.33 ± 2.77 | – | – | – | – | – | – | – | – | – | – | – | – | – | Papp A→B at 4 h (P-gp and MRP2): 35.6 ± 7.63 ×10⁻⁶ cm/s; Papp B→A at 4 h (P-gp and MRP2): 39.1 ± 8.91 ×10⁻⁶ cm/s; efflux ratio at 4 h (P-gp and MRP2): 1.1
CCC1=N[C@H]2C[C@@]3(C(=O)N(OC)c4ccccc43)[C@H]3C[C@@H]1[C@@H]2CO3 [Gelsenicine, gelsenicine] | 86.6 ± 15.8 | 122 ± 26.1 | 1.4 | 2.39 | > 2 | 2.8 ± 0.11 | 6.69 ± 1.35 | 41.42 | about 12% | approximately 2.0 times | 40.59 | – | – | – | – | – | – | – | – | – | Papp A→B at 4 h (P-gp and MRP2): 101 ± 28.4 ×10⁻⁶ cm/s; Papp B→A at 4 h (P-gp and MRP2): 143 ± 10.8 ×10⁻⁶ cm/s; efflux ratio at 4 h (P-gp and MRP2): 1.42
C=CC12CN(C)C3C4COC(CC41)C1(C(=O)N(OC)c4ccccc41)C32 (centres unmarked) [Gelsevirine, gelsevirine] | – | – | – | 2.00 | – | – | – | 36.00 | over 3% | approximately 2.0 times | 34.00 | 392 ± 58.1 | 503 ± 93 | 1.28 | > 2 | 6.33 ± 2.31 | 12.7 ± 2.67 | 464 ± 93.8 | 614 ± 56.8 | 1.32 | –
CCC1=NC2CC3(C(=O)N(OC)c4ccccc43)C3OCC2C1C3O (centres unmarked) [Humantenidine, humantenidine] | – | – | – | 2.93 | – | – | – | 43.69 | – | approximately 2.0 times | 42.32 | 3.14 ± 1.19 | 6.17 ± 0.57 | 1.65 | > 2 | 0.14 ± 0.044 | 0.41 ± 0.05 | 4.48 ± 1.06 | 7.57 ± 0.36 | 1.69 | absorbance percentage, rank among all indole alkaloids (Caco-2 cells monolayer; GE sample, apical to basolateral, during 4 h): highest
C/C=C1\CN(C)[C@H]2C[C@@]3(C(=O)N(OC)c4ccccc43)[C@H]3C[C@@H]1[C@@H]2CO3 [Humantenine, humantenine] | – | – | – | – | – | – | – | 8.90 | about 12% | – | 15.07 | 437 ± 71.2 | 580 ± 109 | 1.33 | 1.46 | 6.93 ± 1.59 | 9.87 ± 1.75 | 515 ± 101 | 637 ± 90.1 | 1.24 | –
C=C[C@@]12CN(C)[C@H]3C[C@]14C(=Nc1ccccc14)[C@H]1C[C@@H]2[C@@H]3CO1 [Koumine, koumine] | – | – | – | 1.13 | – | – | – | – | – | – | – | 348 ± 67.4 | 416 ± 80.5 | 1.19 | ~1 | 11.8 ± 4.01 | 13.4 ± 3.84 | 440 ± 93.3 | 524 ± 91.5 | 1.19 | –
